{"source": "patent US20230202982A1", "about": "“5-CHLORO-4-HYDROXY-1-METHYL-2-OXO-N-PHENYL-QUINOLINE-3-CARBOXAMIDE POTASSIUM SALT FOR TREATING INFLAMMATORY BOWEL DISEASES” (Aqilion AB, priority 2020, published 2023)", "key": {"[1]": {"assay": "Solubility in PBS (pH 7.4) and simulated colonic fluid, saturated solutions by HPLC-UV", "type": "physicochemical", "settings": "thermodynamic from solid, saturated solution, ambient temperature", "protocol": "The solubility and stability at room temperature of Example compound 1 and the free acid compound 5-chloro-4-hydroxy-1-methyl-2-oxo-N-phenyl-quinoline-3-carboxamide (described in Example 1a) above) was determined in PBS (pH 7.4) and in simulated colonic fluid (SCF) at ambient temperature. The SCF was the product FaSSCof obtained from Biorelevant.com prepared according to the manufacturer’s instructions. FaSSCof contains 0.15 mM sodium cholate, 0.3 mM Phospholipids, 0.1 mM Oleate, 120 mM sodium hydroxide, 45 mM TRIS and 76 mM maleate.\nSaturated solutions were prepared in these solvents and the concentrations/impurity profile was determined by HPLC-UV using a calibration curve in the range of 1 to 150 µg/ml at 300 nm or 320 nm. Visual evaluation was also performed after every step over the testing period."}, "[2]": {"assay": "Thermogravimetric analysis (TGA) and differential scanning calorimetry (DSC)", "type": "physicochemical", "settings": "heating 20° C./min, nitrogen", "protocol": "For the TGA analysis, approximately 5-10 mg of sample of Example Compound 1 was accurately weighed into a pierced Tzero aluminium pan and sealed with a pinhole lid using a crimper. The sample was then loaded into the chamber of a TGA thermal analyser at ambient temperature. A TA Instruments TGA5500 device was used. The sample was then heated at a rate of 20° C./min from 20° C. to 400° C. The purge gas used was nitrogen at a flow rate of 50 cm^3/min.\nFor the DSC analysis, approximately 2 mg of sample was accurately weighed into a pierced Tzero aluminium pan and sealed using a universal crimper. The sample was then loaded into the chamber of a DSC analyser at ambient temperature. A TA Instruments DSC2500 device was used. The sample was then heated at a rate of 20° C./min from 30° C. to 400° C. The purge gas used was nitrogen at a flow rate of 50 cm^3/min"}, "[3]": {"assay": "Slurry in water for 48 hours, re-examined by XRPD (disproportionation)", "type": "physicochemical", "settings": "slurry in water 20 mg / 400 uL, ambient temperature, potassium salt", "protocol": "When a sample of Example compound 1 was stored in a slurry in water at 20 mg / 400uL for 48 hours at ambient temperature, recovered, dried by evaporation and re-examined by XRPD, there was no change in the X-ray diffractogram."}, "[4]": {"system": "CD4+ adoptive transfer induced inflammatory bowel disease", "assay": "CD4+ adoptive transfer induced inflammatory bowel disease in mice", "type": "in vivo", "protocol": "The efficacy of the 5-chloro-4-hydroxy-1-methyl-2-oxo-N-phenyl-quinoline-3-carboxamide potassium salt in inhibiting inflammation/edema associated with inflammatory bowel disease was evaluated in a CD4+ adoptive transfer induced inflammatory bowel disease in mice.\nOn study day -1, SCID mice were weighed and evenly distributed into treatment groups based on body weight.\nOn study day 0, Balb/C mice were terminated, and spleens obtained for CD4^+CD45RB^high cell isolation (Using SCID IBD Cell Separation Protocol). After cells were sorted and obtained, each animal in the treatment groups received an IP injection of CD4^+CD45RB^high cells at a minimum 4x10^5 cells (200 µl/mouse injections). A naive group of mice was followed through the experiment without receiving the injection of cells. The naive group comprised 5 animals.\nOn study day 21, treatment with 5-chloro-4-hydroxy-1-methyl-2-oxo-N-phenylquinoline-3-carboxamide potassium salt (1 mg/kg, daily day 21 to 49) was initiated. The compound was formulated as a 0.1 mg/mL suspension with sodium carboxymethyl cellulose (1%, w/v). Mice received either the 5-chloro-4-hydroxy-1-methyl-2-oxo-N-phenyl-quinoline-3-carboxamide potassium salt (Example compound 1) or vehicle. Each of those groups comprised 10 animals.\nOn study day 49, animals were anesthetized with Isoflurane and bled to exsanguination followed by cervical dislocation. The entire colon was removed, measured, and weighed. The colon was analysed for its level of interferon-γ and IL-22. The inflammation in the colons was also scored by visual and histopathological assessments."}}, "note": "Where two headings read alike, the source gives them in different places."}
{"smiles": "Cn1c(=O)c(C(=O)Nc2ccccc2)c([O-])c2c(Cl)cccc21.[K+]", "note": "[Example compound 1, 5-chloro-4-hydroxy-1-methyl-2-oxo-N-phenyl-quinoline-3-carboxamide potassium salt]", "values": [{"measurement": "solubility", "setting": "[1]; aqueous buffer, PBS (pH 7.4), read-out: Solubility in PBS (pH7.4)", "result": 0.91, "unit": "µg/mL"}, {"measurement": "solubility", "setting": "[1]; simulated colonic fluid (FaSSCof), fassgf or other biorelevant, SCF (FaSSCof), read-out: Solubility in simulated colonic fluid (SCF)", "result": 7.99, "unit": "µg/mL"}, {"measurement": "Degradation temperature", "setting": "[2]; listed as 5-chloro-4-hydroxy-1-methyl-2-oxo-N-phenyl-quinoline-3-carboxamide potassium sal, potassium salt", "result": 347, "unit": "°C"}, {"measurement": "Degradation temperature", "setting": "[2]; listed as Example Compound 1, potassium salt", "result": "347 °C ±2 °C"}, {"measurement": "Degradation temperature", "setting": "[2]; potassium salt", "result": 347, "unit": "°C"}, {"measurement": "Stability in water slurry: change in X-ray diffractogram", "setting": "[3]; listed as 5-chloro-4-hydroxy-1-methyl-2-oxo-N-phenylquinoline-3-carboxamide potassium salt", "result": "stable when in a slurry"}, {"measurement": "Stability in water slurry: change in X-ray diffractogram", "setting": "[3]", "result": "no change"}, {"measurement": "Body weight change", "setting": "[4]; 1 mg/kg daily day 21 to 49, SCID mice, vs vehicle, FIG. 4", "result": "less weight loss"}, {"measurement": "Colon level of inflammatory markers (interferon-γ and IL-22)", "setting": "[4]; 1 mg/kg daily day 21 to 49, day 49, vs vehicle, FIG. 5", "result": "lower levels of inflammatory markers"}, {"measurement": "Colon inflammation scores (visual and histopathological)", "setting": "[4]; 1 mg/kg daily day 21 to 49, day 49, vs vehicle, FIG. 6", "result": "fewer signs of inflammation"}, {"measurement": "Inhibition of inflammation/edema associated with inflammatory bowel disease", "setting": "[4]; CD4+ adoptive transfer model in mice, summary statement", "result": "effective in inhibiting inflammation/edema"}]}
